Test results from patent publication US20250179024A1, “AMYLOID AND ASSOCIATED PATHOLOGY MODULATORS AND METHODS THEREOF” (Jawaharlal Nehru Centre for Advanced Scientific Research, priority 2022, published 2025).

Key:
Aβ = biological target: T1, Aβ (Homo sapiens, UniProt P05067); test: AFM imaging of Aβ samples; conditions: for morphology of Aβ sample, aggregation inhibition: Aβ 10 μM, FIG. 1C
T1 construct: is a 42 amino acid proteolytic product from the amyloid precursor protein; purchased Invitrogen
Protocol: AFM imaging was done to understand the morphological characteristics of Aβ and NMI treated samples. The samples from Aβ aggregation inhibition and dissolution studies were used for AFM imaging. 25 μL of sample was drop-casted on freshly cleaved mica substrate. The Aβ samples were allowed to adhere to substrate surface for 15 min, washed with filtered MiliQ water and air dried. The samples were imaged in Scan assist Air mode in Bioscope resolve AFM system (Bruker). The images were processed and analyzed using NanoScope analysis software. […] It has been observed that the oligomers are a highly toxic species compared to Aβ fibrillar aggregates. The ability of NMIs (M3) to inhibit the formation of Aβ oligomers was assessed by dot blot assay. Aβ peptide (10 μM) was incubated with NMIs at 4° C. for 24 h followed by probing with A11 oligomer-specific antibody. […] Native PAGE and western blot analysis was carried out to understand the size distribution of Aβ aggregated species. […] In order to analyse the higher order aggregates not permeable in the gel matrix and the morphological characteristics, Aβ samples were subjected to atomic force microscopy (AFM) imaging.

[1] = biological target: T2, preformed Aβ fibrillar aggregates (Homo sapiens, UniProt P05067); test: Dot blot assay of dissolution of preformed Aβ fibrillar aggregates; format: biochemical; conditions: Aβ aggregates 10 μM; for dissolution efficiency: NMIs 20 μM, 48 h
T2 construct: is a 42 amino acid proteolytic product from the amyloid precursor protein; purchased Invitrogen
Protocol: Aggregation modulation by toxic Aβ aggregates were assessed and were quantified by dot blot assay. Aβ peptide (10 μM) was dissolved in phosphate buffered saline (PBS, 10 mM, pH 7.4), incubated alone and with NMIs (20 μM) at 37° C. for 48 h. For concentration dependent inhibition, 10 μM Aβ peptide was incubated with 1, 2, 5, 10 and 20 μM of NMIs and incubated. Samples for oligomer inhibition studies were prepared by incubating Aβ alone and with NMIs at 4° C. for 24 and subjected to dot blot analysis. For dissolution studies, Aβ peptide alone was incubated in PBS for 48 h to prepare fibrils and then incubated with NMIs further for 48 h. For dot blot experiment, 5 μL of sample was blotted on activated PVDF (polyvinylidene fluoride) membrane in triplicates and air dried. The membrane was blocked with skimmed milk powder for 1 h at room temperature. The blot paper was washed with tris-buffered saline with 0.01% Tween 20 (TBST) three times for 5 min. Blot paper was treated with fibril specific OC primary antibody (Rabbit, 1:1000 dilution) overnight at 4° C. For oligomers blot A11 anti-oligomer antibody (Rabbit 1:1000) was used. Blot was washed thrice with TBST and treated with HRP-conjugated antirabbit secondary antibody (1:5000 dilutions) for 1 h at room temperature. The bolt was washed thrice for 5 min with TBST and developed with ECL reagent (Biorad) and imaged with ChemiDoc BioRad gel documentation system in autoexposure mode. Blots were analyzed and quantified by ImageJ software. The fibrillar aggregates were formed by incubating Aβ peptide (10 μM) in PBS (pH 7.4) at 37° C. for 48 h. The aggregate samples were treated with NMIs (20 μM) for 48 h followed by dot blot analysis. […] These studies confirmed that M3 as the potential candidate to dissolve Aβ fibrillar aggregates to possibly nontoxic species.

SH-SY5Y cells = test: In cellulo antioxidant assay, rescue from H2O2 induced cell death (MTT); format: cell-based; conditions: H2O2 200 μM, NMIs 20 μM, 18 h; H2O2 treated cells ~72%
Protocol: To assess in cellulo antioxidant activity of NMIs, rescue of neuronal cells from H2O2 induced cell death was assessed by MTT assay. The cells were seeded onto 96 well plate at seeding density of 25,000 cells per well. After 24 h cells were treated with H2O2 (200 μM) alone and with NMIs (20 μM) for 18 h. H2O2 treatment result in neuronal cell death and potent antioxidant molecule rescue cells. The cell viability was assessed by MTT assay and percentage cell viability was calculated. ABTS (λmax at 734 nm) radical scavenging assay assessed the ability of NMIs to quench nitrogen radicals (RNS). […] These in vitro experiments have established M1 and M3 as effective antioxidants and further their ability to scavenge ROS in cellulo was assessed. Treatment of cells with H2O2 was known to generate ROS and cause DNA damage, protein oxidation, lipid peroxidation and mitochondrial dysfunction, which led to cell death. The neuronal cells were treated with H2O2 (200 μM) alone and with NMIs (20 μM) for 18 h and cell viability by MTT assay. […] The production of excess ROS by Aβ results in oxidative stress and elicits stress response.

T1 sequence (P05067 672-713 limits assumed): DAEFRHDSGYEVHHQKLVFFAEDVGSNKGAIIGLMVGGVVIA
T2 sequence (P05067 672-713 limits assumed): as above

| SMILES | morphology of Aβ sample, aggregation inhibition (Aβ; NMIs 20 μM) | dissolution efficiency [1] [%] | cell viability (SH-SY5Y cells) [%] | morphology of metal-dependent Aβ aggregation (Aβ; Aβ 10 μM with Cu (II) or Zn (II), NMIs 20 μM, FIGS. 1E and 1F) | morphology of preformed fibrils after treatment (Aβ; Aβ aggregates 10 μM, FIG. 4C) | EC50 [1] [µM] | dissolution ([1]; 0.1 molar ratio) [%] | dissolution ([1]; 0.2 molar ratio) [%] | dissolution ([1]; 0.5 molar ratio) [%] | dissolution ([1]; 1 molar ratio) [%] | dissolution ([1]; 2 molar ratio) [%] |
| --- | --- | --- | --- | --- | --- | --- | --- | --- | --- | --- | --- |
| CN(C)c1ccc2c3c(cccc13)C(=O)N(CCc1ccc(O)c(O)c1)C2=O [M1, 2-(3,4-dihydroxyphenethyl)-6-(dimethylamino)-1H-benzo[de]isoquinoline-1,3(2H)-dione] | amorphous structures | ~44 | 89 |  |  |  |  |  |  |  |  |
| O=C1c2cccc3c(N(Cc4ccccn4)Cc4ccccn4)ccc(c23)C(=O)N1CCc1ccc(O)c(O)c1 [M3, 6-(bis(pyridin-2-ylmethyl)amino)-2-(3,4-dihydroxyphenethyl)-1H-benzo[de]isoquinoline-1,3(2H)-dione] | amorphous structures | 52 | 91 | minimal Aβ fibrils and mostly small amorphous clumps | amorphous clumps | 7.87 | 25 | 46 | 48 | 50 | 59 |
